Measurements as given in ChEMBL document CHEMBL1122759, “6-Hydroxy-4-[2-(di-n-propylamino)ethyl]indole: synthesis and dopaminergic actions” (1984).
Active and inactive are the calls of the source. The calls are words filed in the database; no cut-off is given here.

Legend:
[1] = tested on: Felis catus; experiment: Compound tested in vitro for sympathetic neuronal activity in cat atria […]; format: functional; conditions: Sympathetic neuron, read-out: ED50 (the source's name)
[2] = tested on: Felis catus; experiment: Compound tested in vivo for sympathetic neuronal activity in cat cardioaccelerator nerve after iv administration; format: functional; conditions: Sympathetic neuron
[3] = molecular target: T1, Dopamine receptor (Homo sapiens) (UniProt P14416+P35462+P21918+P21917+P21728); experiment: […] inhibitory activity against dopamine receptor in isolated cat atria; active; conditions: Felis catus; target entry is the homologue from another species
[4] = tested on: Felis catus; experiment: Compound tested in vivo for sympathetic neuronal activity in cat cardioaccelerator nerve after intraduodenal administration; format: functional; conditions: Sympathetic neuron
[5] = molecular target: T1, Dopamine receptor (Homo sapiens); experiment: […] inhibitory activity against dopamine receptor in isolated cat atria; inactive; conditions: Felis catus; target entry is the homologue from another species
[6] = tested on: Felis catus; experiment: Compound tested in vitro for sympathetic neuronal activity in cat atria […]; no inhibition with concentrations uM; format: functional; conditions: Sympathetic neuron

Row | SMILES | EC50 [1] [nM] | ED50 [2] [µmol/kg] | Activity [3] | ED50 [4] [µmol/kg] | Activity [5] | ED50 [6]
1 | CCCN(CCC)CCc1cc(O)cc2[nH]ccc12 | 27 | 0.019 | Active | 0.047 | – | –
2 | CCCN(CCC)CCc1cccc2[nH]ccc12 | – | 0.22 | – | – | inactive | inactive
3 | CN1C[C@H](CC#N)C[C@@H]2c3cccc4[nH]c(Cl)c(c34)C[C@H]21 [LERGOTRILE] | – | 0.27 | – | – | – | –
